These results are taken from patent US20230348362A1, “LIPID COMPOUNDS AND LIPID NANOPARTICLE COMPOSITIONS” (Suzhou Abogen Biosciences Co., Ltd., priority 2021, published 2023).

Holding throughout (assay type): physicochemical
Data set [1] is described as follows: Lipid nanoparticle size and polydispersity by dynamic light scattering. Conditions: LNP of lipid/DSPC/cholesterol/PEG-lipid 50:10:38.5:1.5 encapsulating hEPO mRNA. How it is done: (§1) Briefly, a cationic lipid provided herein, DSPC, cholesterol, and PEG-lipid were solubilized in ethanol at a molar ratio of 50:10:38.5:1.5, and mRNA were diluted in 10 to 50 mM citrate buffer, pH=4. The LNPs were prepared at a total lipid to mRNA weight ratio of approximately 10:1 to 30:1 by mixing the ethanolic lipid solution with the aqueous mRNA solution at a volume ratio of 1:3 using a microfluidic apparatus, total flow rate ranging from 9-30 mL/min. Ethanol were thereby removed and replaced by DPBS using dialysis. Finally, the lipid nanoparticles were filtered through a […] sterile filter.
(§2) Lipid nanoparticle size were determined by dynamic light scattering using a Malvern Zetasizer Nano ZS (Malvern UK) using a […] backscatter detection mode. The encapsulation efficiency of lipid nanoparticles were determined using a Quant-it Ribogreen RNA quantification assay kit (Thermo Fisher Scientific, UK) according to the manufacturer's instructions.

Data set [2] in a line: Encapsulation efficiency of lipid nanoparticles, Quant-it Ribogreen RNA assay. Conditions: LNP of lipid/DSPC/cholesterol/PEG-lipid 50:10:38.5:1.5 encapsulating hEPO mRNA. How it is done:
as §1, §2

A short description of data set [3]: Apparent pKa of LNP formulations, TNS fluorescence assay. Conditions: LNP cationic lipid/DSPC/cholesterol/DMG-PEG 50/10/38.5/1.5 mol %. How it is done: As reported in literature, the apparent pKa of LNP formulations correlates with the delivery efficiency of LNPs for nucleic acids in vivo. The apparent pKa of each formulation was determined using an assay based on fluorescence of 2-(p-toluidino)-6-napthalene sulfonic acid (TNS). LNP formulations comprising of cationic lipid/DSPC/cholesterol/DMG-PEG (50/10/38.5/1.5 mol %) in PBS were prepared as described above. TNS was prepared as a 300 μM stock solution in distilled water. LNP formulations were diluted to 0.1 mg/mL total lipid in 3 mL of buffered solutions containing 50 mM sodium citrate, 50 mM sodium phosphate, 50 mM sodium borate, and 30 mM sodium chloride where the pH ranged from 3 to 9. An aliquot of the TNS solution was added to give a final concentration of […] and following vortex mixing fluorescence intensity was measured at room temperature in a Molecular Devices Spectramax iD3 spectrometer using excitation and mission wavelengths of 325 nm and 435 nm. A sigmoidal best fit analysis was applied to the fluorescence data and the pKa value was measured as the pH giving rise to half-maximal fluorescent intensity.

Turning to `CCCCCCCCCCCOC(=O)CCCCCN(CCN(CCO)CCCCCOC(=O)OCC(CCCCCCCC)CCCCCCCC)C1CCCCC1` [Compound 128], in data set [1], the polydispersity was determined as 0.093 and the “size (nm)” value came to 60.57 nm. For the same compound, the “Encapsulation Efficiency” value in data set [2] was 92.31%. Further, the “Apparent Pka” value in data set [3] came to 6.539.

For `CCCCCCCCC(CCCCCCCC)COC(=O)CCCCCN(CCO)CCN(CCCCCC(=O)OCC(CCCCCCCC)CCCCCCCC)C1CCC(C(F)(F)F)CC1` (centres unmarked) [Compound 29], in data set [1], the polydispersity is 0.09 and the “size (nm)” value amounted to 59.02 nm. The “Encapsulation Efficiency” value in data set [2] is 93.5%. The “Apparent Pka” value in data set [3] worked out at 6.073.

For the compound `CCCCCCCCCCCC(=O)OCCCCCN(CCN(CCO)CCCCCOC(=O)CC(CCCCCCCC)CCCCCCCC)C1CCC1` [Compound 92], in data set [1], the polydispersity stood at 0.014 and the “size (nm)” value is listed as 80.12 nm. In addition, in data set [2], the “Encapsulation Efficiency” value is reported as 91.34%. The “Apparent Pka” value in data set [3] worked out at 6.582.

Take `CCCCCCCCOC(=O)C(CCCCN(CCN(CCO)CCCCCC(=O)OCC(CCCCCC)CCCCCCCC)C1CCC1)C(=O)OCCCCCCCC` (centres unmarked) [Compound 223]: in data set [1], the polydispersity was 0.043 and the “size (nm)” value amounted to 70.98 nm. The “Encapsulation Efficiency” value in data set [2] worked out at 93.03%. Besides, the “Apparent Pka” value in data set [3] was 6.395.

`CCCCCCCCCCCC(=O)OCCCCCN(CCN(CCO)CCCCCOC(=O)CC(CCCCCCCC)CCCCCCCC)C1CC1` [Compound 91]: in data set [1], the polydispersity is on record as 0.115 and the “size (nm)” value worked out at 64.49 nm. Besides, the “Encapsulation Efficiency” value in data set [2] came out at 87.92%. For the same compound, the “Apparent Pka” value in data set [3] turned out to be 6.042.

In the case of `CCCCCCCC/C=C\CCCCCCCC(=O)OCCCCCN(CCO)CCN(CCCCCNC(=O)CC(CCCCCC)CCCCCCCC)C1CCCCCC1` (centres unmarked) [Compound 152], in data set [1], the polydispersity amounted to 0.031 and the “size (nm)” value was 83.28 nm. Besides, the “Encapsulation Efficiency” value in data set [2] is recorded as 91.68%. For the same compound, the “Apparent Pka” value in data set [3] is given as 6.646.

As for `CCCCCCCCC(CCCCCCCC)CC(=O)NCCCCCN(CCN(CCO)CCCCCOC(=O)CC(CCCCCCCC)CCCCCCCC)C1CCC1` [Compound 61], in data set [1], the polydispersity was 0.026 and the “size (nm)” value was determined as 66.08 nm. The “Encapsulation Efficiency” value in data set [2] was 95.4%. The “Apparent Pka” value in data set [3] is recorded as 6.731.

In the case of `CCCCCCCCC(CCCCCCCC)CC(=O)NCCCCCN(CCN(CCO)CCCCCCOC(=O)C(CCCCCC)CCCCCCCC)C1CCC1` (centres unmarked) [Compound 70], in data set [1], the polydispersity was determined as 0.005 and the “size (nm)” value is on record as 126 nm. In data set [2], the “Encapsulation Efficiency” value worked out at 91.32%. Moreover, the “Apparent Pka” value in data set [3] worked out at 6.732.

In the case of `CCCCCCCCCCCOC(=O)CCCCCN(CCO)CCN(CCCCCC(=O)OCC(CCCCCCCC)CCCCCCCC)C1CCCCC1` [Compound 45], in data set [1], the polydispersity is given as 0.051 and the “size (nm)” value came out at 63.5 nm. In data set [2], the “Encapsulation Efficiency” value amounted to 90.9%. In addition, the “Apparent Pka” value in data set [3] came to 6.402.

With `CCCCCCCCC(CCCCCCCC)COC(=O)CCCCCN(CCO)CCN(CCCCC)CCCCCC(=O)OCC(CCCCCCCC)CCCCCCCC` [Compound 124], in data set [1], the polydispersity is recorded as 0.111 and the “size (nm)” value is recorded as 59.55 nm. In addition, the “Encapsulation Efficiency” value in data set [2] turned out to be 94.60%. In addition, in data set [3], the “Apparent Pka” value amounted to 5.997.

Turning to `CCCCCCCCC(CCCCCCCC)COC(=O)CCCCCN(CCO)CCN(CCCCCC(=O)OCC(CCCCCCCC)CCCCCCCC)C1CCCCC1C` (centres unmarked) [Compound 34], in data set [1], the polydispersity is 0.05 and the “size (nm)” value is on record as 55.14 nm. Further, the “Encapsulation Efficiency” value in data set [2] is given as 87.2%. Further, the “Apparent Pka” value in data set [3] worked out at 5.485.

`CCCCCCCCC(CCCCCCCC)CNC(=O)CCCCCN(CC=C(C)C)CCN(CCO)CCCCCC(=O)NCC(CCCCCCCC)CCCCCCCC` [Compound 122]: in data set [1], the polydispersity was 0.066 and the “size (nm)” value worked out at 65.77 nm. Besides, the “Encapsulation Efficiency” value in data set [2] is given as 93.47%. Also, in data set [3], the “Apparent Pka” value came to 6.817.

As to `CCCCCCCCC(CCCCCC)CNC(=O)CCCCCN(CCO)CCN(CCCCC(COC(=O)CCCCCCC)COC(=O)CCCCCCC)C1CCC1` (centres unmarked) [Compound 136], in data set [1], the polydispersity is recorded as 0.040 and the “size (nm)” value was found to be 84.74 nm. Also, the “Encapsulation Efficiency” value in data set [2] stood at 88.64%. Further, the “Apparent Pka” value in data set [3] is on record as 6.831.

For the compound `CCCCCCCCCCCOC(=O)CCCCCN(CCN(CCO)CCCCCCC(=O)OCC(CCCCCCCC)CCCCCCCC)C1CCCCC1` [Compound 43], in data set [1], the polydispersity came out at 0.07 and the “size (nm)” value is reported as 66.41 nm. Moreover, the “Encapsulation Efficiency” value in data set [2] is listed as 89.6%. In addition, the “Apparent Pka” value in data set [3] was 6.346.

Consider `CCCCCCCCC(CCCCCCCC)CNC(=O)CCCCCN(CCCCN(CCO)CCCCC(COC(=O)CCCCCCC)COC(=O)CCCCCCC)C1CCC1` [Compound 186], for which, in data set [1], the polydispersity was 0.139 and the “size (nm)” value is reported as 72.88 nm. Besides, in data set [2], the “Encapsulation Efficiency” value came to 91.69%. In addition, the “Apparent Pka” value in data set [3] is on record as 7.617.

Consider `CCCCCCCCCCCOC(=O)CCOCCN(CCN(CCO)CCOCCC(=O)OCC(CCCCCCCC)CCCCCCCC)C1CCC1` [Compound 116], for which, in data set [1], the polydispersity turned out to be 0.102 and the “size (nm)” value stood at 77.45 nm. Further, the “Encapsulation Efficiency” value in data set [2] is 87.45%. The “Apparent Pka” value in data set [3] stood at 6.826.

On to `CCCCCCCCC(CCCCCCCC)CNC(=O)CCCCCN(CCN(CCCCCCCCCO)CCCCCC(=O)OCC(CCCCCCCC)CCCCCCCC)C1CCC1` [Compound 78], for which, in data set [1], the polydispersity stood at 0.019 and the “size (nm)” value was determined as 100.3 nm. In addition, the “Encapsulation Efficiency” value in data set [2] stood at 88.18%. Further, the “Apparent Pka” value in data set [3] is listed as 6.195.

As to `CCCCCCCC(=O)OCC(CCCCN(CCO)CCCCN(CCCCC(COC(=O)CCCCCCC)COC(=O)CCCCCCC)C1CCCC1)COC(=O)CCCCCCC` [Compound 181], in data set [1], the polydispersity came out at 0.154 and the “size (nm)” value was 119.3 nm. Besides, in data set [2], the “Encapsulation Efficiency” value was determined as 94.10%. Moreover, in data set [3], the “Apparent Pka” value is 6.995.

Take `CCCCCCCCC(CCCCCC)COC(=O)CCCCCN(CCO)CCN(CCCCC(COC(=O)CCCCCCC)COC(=O)CCCCCCC)C1CCCC1` (centres unmarked) [Compound 137]: in data set [1], the polydispersity is listed as 0.040 and the “size (nm)” value was 67.32 nm. Besides, in data set [2], the “Encapsulation Efficiency” value was determined as 89.36%. Moreover, the “Apparent Pka” value in data set [3] came out at 6.494.

Turning to `CCCCCCCCC(CCCCCCCC)COC(=O)CCCCCN1CCC(N(CCO)CCCCCC(=O)OCC(CCCCCCCC)CCCCCCCC)CC1` [Compound 170], in data set [1], the polydispersity amounted to 0.09 and the “size (nm)” value was determined as 74.62 nm. In addition, the “Encapsulation Efficiency” value in data set [2] is 96.0%. Besides, the “Apparent Pka” value in data set [3] was found to be 6.269.

`CCCCCCCCCCCOC(=O)CCCCCN(CCN(CCO)CCCCC(COC(=O)CCCCCCC)COC(=O)CCCCCCC)C1CCCCC1` [Compound 221]: in data set [1], the polydispersity is on record as 0.07 and the “size (nm)” value turned out to be 99.33 nm. Further, in data set [2], the “Encapsulation Efficiency” value came to 93.71%. In addition, in data set [3], the “Apparent Pka” value is recorded as 6.316.

On to `CCCCCCCCC(CCCCCCCC)COC(=O)CCCCCN(CCO)CCN(CCCCCC(=O)OCC(CCCCCCCC)CCCCCCCC)Cc1ccc([N+](=O)[O-])cc1` [Compound 38], for which, in data set [1], the polydispersity was 0.092 and the “size (nm)” value is recorded as 54.42 nm. The “Encapsulation Efficiency” value in data set [2] was 89.8%. Moreover, the “Apparent Pka” value in data set [3] is 6.253.

Take `CCCCCCCCCCCOC(=O)CCCCCN(CCN(CCO)CCCCCC(=O)OCC(CCCCCC)CCCCCCCC)C1CC1` (centres unmarked) [Compound 3]: in data set [1], the polydispersity amounted to 0.131 and the “size (nm)” value amounted to 73.33 nm. Moreover, the “Encapsulation Efficiency” value in data set [2] amounted to 93.6%. Also, the “Apparent Pka” value in data set [3] is on record as 6.32.

For `CCCCCCCCCCCC(=O)NCCCCCN(CCN(CCO)CCCCCNC(=O)CC(CCCCCCCC)CCCCCCCC)C1CCCCC1` [Compound 58], in data set [1], the polydispersity was found to be 0.1 and the “size (nm)” value was 110 nm. For the same compound, the “Encapsulation Efficiency” value in data set [2] is on record as 97.7%. In addition, the “Apparent Pka” value in data set [3] is listed as 7.327.

As for `CCCCCCCCCCCC(=O)OCCCCCN(CCN(CCO)CCCCCOC(=O)CC(CCCCCCCC)CCCCCCCC)C1CCCCCC1` [Compound 94], in data set [1], the polydispersity came to 0.061 and the “size (nm)” value is recorded as 58.34 nm. The “Encapsulation Efficiency” value in data set [2] was 90.26%. Besides, in data set [3], the “Apparent Pka” value is 6.448.

Turning to `CCCCCCCCC(CCCCCCCC)COC(=O)CCCCCN(CCO)CCN(CCCCCC(=O)OCC(CCCCCCCC)CCCCCCCC)C1CCSCC1` [Compound 30], in data set [1], the polydispersity stood at 0.115 and the “size (nm)” value came out at 53.56 nm. The “Encapsulation Efficiency” value in data set [2] was 92.9%. Further, the “Apparent Pka” value in data set [3] was found to be 6.131.
